Values after ≈ are worked out from the molar mass of the structure shown. Values joined by “and” are separate entries in the source; they are usually repeats but may differ in a detail not shown here. Equal values may be shown once.
Key:
3T3 = assay: Inhibition of Cancer Cell Growth as Measured by Cell Number (Sulforhodamine B); type: cell-based; conditions: 48 hours exposure
Procedure: (§1) Human tumor cell lines were plated in 96-well plates (250 µl/well, 1-6 x 10^4 cells/ml) in RPMI 1640 medium, containing 5% FBS (Fetal Bovine Serum). […] After 48 hours exposure to test compounds, cells were fixed with trichloroacetic acid, and stained with Sulforhodamine B. After washing with trichloroacetic acid, bound dye was solubilized in 10 mM Tris base and optical density was determined using plate reader. Under conditions of the assay the optical density is proportional to the number of cells in the well. […] The test procedure is described in details by Philip Skehan et. al, J.Natl. Canc. Inst., 82, 1107-1112 (1990). […] Information about some of the cell lines used in these test procedures is available from the American Type Tissue Collection: Cell Lines and Hybridomas, 1994 Reference Guide, 8th Edition.

3T3/c-erbb2 = assay: as above; type: cell-based; conditions: 48 hours exposure
Procedure: as §1

[1] = target: Recombinant human MEK 1 (MAPKK) / recombinant human ERK2 (MAPK) (Mek-Erk) (Homo sapiens, UniProt P28482+Q02750); assay: Mitogen Activated Protein Kinase (MAPK) assay, two component coupled Mek-Erk test; type: biochemical; conditions: read-out: Mek-Erk
Procedure: To evaluate inhibitors of the MAP (mitogen activated protein) kinase a two component coupled standard pharmacological test procedure, which measures phosphorylation of a serine/threonine residue in an appropriate sequence in the substrate in the presence and absence of a putative inhibitor, was used. Recombinant human MEK 1 (MAPKK) was first used to activate recombinant human ERK2 (MAPK) and the activated MAPK (ERK) was incubated with substrate (MBP peptide or MYC peptide) in the presence of ATP, Mg^+2 and radiolabeled ^33P ATP. The phosphorylated peptide was captured on a P 81 phosphocellulose filter (paper filter or embedded in microtiter plate) washed and counted by scintillation methods.
The peptide substrates used in the assay are MBP, peptide substrate ([sequence]), or synthetic Myc substrate, ([sequence]•5 TFA. The recombinant enzymes used were prepared as GST fusion proteins of human ERK 2 and human MEK 1. Inhibitor samples were prepared as 10X stocks in 10% DMSO and an appropriate aliquot was used to deliver either 10 ug/ml for a single point screening dose or 100, 10, 1, and 0.1 uM final concentration for a dose response curve. Final DMSO concentrations were less than or equal to 1%.
The reaction was run as follows in 50 mM Tris kinase buffer, pH 7.4 in a reaction volume of 50 ul. The appropriate volume of kinase buffer and inhibitor sample was added to the tube. Appropriate dilution of enzyme was delivered to give 2-5 ug recombinant MAPK (Erk ) per tube. The inhibitor was incubated with MAPK (Erk) for 30 min at 0° C. Recombinant Mek (MAPKK) ( 0.5-2.5 ug) or fully activated Mek (0.05-0.1 units) was added to activate the Erk and incubated for 30 min at 30° C. Then substrate and gamma ^33P ATP was were added to give a final concentration of 0.5- 1 mM MBPP or 250-500 uM Myc; 0.2-0.5 uCi gamma P 33 ATP/tube; 50 µM ATP final concentration. Samples were incubated at 30°C for 30 minutes and the reaction was stopped by adding 25 µl of ice cold 10 %TCA .After samples were chilled on ice for 30 min, 20 µl of sample was transferred onto P 81 phosphocellulose filter paper or appropriate MTP with embedded P 81 filter. Filter papers or MTP were washed 2 times with a large volume of 1% acetic acid, then 2 times with water. The filters or MTP were briefly air dried before addition of scintillant and samples were counted in the appropriate scintillation counter set up for reading ^33P isotope.
The raw data was captured as cpm. Sample replicates were averaged and corrected for background count. Mean cpm data was tabulated by group and % inhibition by a test compound was calculated as (corrected cpm control- corrected. cpm sample/control) X 100 = % inhibition.

A431 = assay: Inhibition of Cancer Cell Growth as Measured by Cell Number (Sulforhodamine B); type: cell-based, Human; conditions: 48 hours exposure; for IC50: Homo sapiens, A-431, 48 h
Procedure: as §1

MDA-MB-435 = assay: as above; type: cell-based, Human; conditions: 48 hours exposure; for IC50: Homo sapiens, MDA-MB-435, 48 h
Procedure: as §1

SK-BR3 = assay: as above; type: cell-based, Human; conditions: 48 hours exposure; for IC50: Homo sapiens, SK-BR-3, 48 h
Procedure: as §1

SW620 = assay: as above; type: cell-based, Human; conditions: 48 hours exposure; for IC50: Homo sapiens, SW-620, 48 h
Procedure: as §1

[2] = target: Epithelial Cell Kinase (ECK) (Homo sapiens, UniProt P29317); assay: Inhibition of Epithelial Cell Kinase (ECK), immobilized biotinylated peptide, HRP anti-phosphotyrosine readout; type: biochemical; conditions: IC50, substrate phosphorylation
Epithelial Cell Kinase (ECK), sequence (P29317 24-976, species assumed): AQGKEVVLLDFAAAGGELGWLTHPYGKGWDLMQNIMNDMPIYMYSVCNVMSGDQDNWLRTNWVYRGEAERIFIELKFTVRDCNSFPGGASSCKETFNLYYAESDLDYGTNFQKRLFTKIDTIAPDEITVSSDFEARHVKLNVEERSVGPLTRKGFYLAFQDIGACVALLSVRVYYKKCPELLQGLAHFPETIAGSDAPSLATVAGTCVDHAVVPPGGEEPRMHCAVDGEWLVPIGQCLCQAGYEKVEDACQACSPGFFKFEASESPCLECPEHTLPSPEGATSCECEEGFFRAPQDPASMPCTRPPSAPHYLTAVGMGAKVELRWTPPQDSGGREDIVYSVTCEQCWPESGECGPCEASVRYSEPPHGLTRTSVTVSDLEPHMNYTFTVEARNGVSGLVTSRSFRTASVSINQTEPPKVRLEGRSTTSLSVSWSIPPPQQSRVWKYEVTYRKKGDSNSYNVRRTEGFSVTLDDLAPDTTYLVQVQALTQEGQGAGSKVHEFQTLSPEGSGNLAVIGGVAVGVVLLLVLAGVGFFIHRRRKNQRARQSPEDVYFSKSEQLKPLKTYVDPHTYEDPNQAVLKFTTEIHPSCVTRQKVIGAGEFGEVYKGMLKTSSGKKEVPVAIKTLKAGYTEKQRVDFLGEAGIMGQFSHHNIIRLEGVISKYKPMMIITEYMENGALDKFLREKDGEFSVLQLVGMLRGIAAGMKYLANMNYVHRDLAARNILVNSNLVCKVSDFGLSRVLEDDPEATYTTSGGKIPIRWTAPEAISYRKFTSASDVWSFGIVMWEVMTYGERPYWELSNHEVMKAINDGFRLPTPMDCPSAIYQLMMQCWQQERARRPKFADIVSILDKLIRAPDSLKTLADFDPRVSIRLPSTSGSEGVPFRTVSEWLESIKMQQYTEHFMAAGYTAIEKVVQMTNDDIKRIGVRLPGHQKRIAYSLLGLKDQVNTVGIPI
Procedure: In this standard pharmacological test procedure, a biotinylated peptide substrate is first immobilized on neutravidin-coated microtiter plates. The test drug, the Epithelial Cell Kinase (ECK), Mg^++, sodium vanadate (a protein tyrosine phosphatase inhibitor), and an appropriate buffer to maintain pH (7.2) are then added to the immobilized substrate-containing microtiter wells. ATP is then added to initiate phosphorylation. After incubation, the assay plates are washed with a suitable buffer leaving behind phosphorylated peptide which is exposed to horse radish peroxidase (HRP)-conjugated anti-phosphotyrosine monoclonal antibody. The antibody-treated plates are washed again and the HRP activity in individual wells is quantified as a reflection of degree of substrate phosphorylation. […] Multiple entries for a given compound indication it was tested multiple times.

A2780 = assay: Inhibition of Cancer Cell Growth as Measured by Cell Number (Sulforhodamine B); type: cell-based; conditions: Homo sapiens, 48 hours exposure
Procedure: as §1

DDP = assay: as above; type: cell-based; conditions: Homo sapiens; 48 hours exposure
Procedure: as §1

[3] = target: T1, Kinase insert Domain containing Receptor (KDR: the catalytic domain of the VEGF receptor) (Homo sapiens, UniProt P35968); assay: Inhibition of Kinase insert Domain containing Receptor (KDR), radioactive phosphorylation of Glu:Tyr copolymer; type: biochemical; conditions: IC50, substrate phosphorylation
T1 construct: KDR: the catalytic domain of the VEGF receptor
T1 sequence (P35968 834-1162 limits assumed): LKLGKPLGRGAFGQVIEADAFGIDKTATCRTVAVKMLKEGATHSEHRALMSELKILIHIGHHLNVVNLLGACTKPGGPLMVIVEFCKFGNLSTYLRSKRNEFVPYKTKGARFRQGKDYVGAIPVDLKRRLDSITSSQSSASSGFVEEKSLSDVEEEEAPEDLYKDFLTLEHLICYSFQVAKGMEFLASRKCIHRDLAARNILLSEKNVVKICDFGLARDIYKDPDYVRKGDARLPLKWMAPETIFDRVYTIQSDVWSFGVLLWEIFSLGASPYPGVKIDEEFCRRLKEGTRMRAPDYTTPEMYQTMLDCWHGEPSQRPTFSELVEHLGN
Procedure: In this standard pharmacological test procedure, KDR protein is mixed, in the presence or absence of a inhibitor compound, with a substrate peptide to be phosphorylated (a copolymer of glutamic acid and tyrosine, E:Y :: 4:1) and other cofactors such as Mg^++ and sodium vanadate (a protein tyrosine phosphatase inhibitor) in an appropriate buffer to maintain pH (7.2). ATP and a radioactive tracer (either P^32- or P^33- labeled ATP) is then add to initiate phosphorylation. After incubation, the radioactive phosphate associated with the acid-insoluble fraction of the assay mixture is then quantified as reflection of substrate phosphorylation. […] Multiple entries for a given compound indication it was tested multiple times.

Row | Compound | IC50 µg/mL 3T3 (3T3) [µg/mL] | IC50 µg/mL 3T3/c-erbb2 (3T3/c-erbb2) [µg/mL] | IC50 [1] | IC50 µg/mL A431 (A431) [µg/mL] | IC50 µg/mL MDA-MB-435 (MDA-MB-435) [µg/mL] | IC50 µg/mL SK-BR3 (SK-BR3) [µg/mL] | IC50 µg/mL SW620 (SW620) [µg/mL] | IC50 [2] [µM] | IC50 (A2780) [µg/mL] | IC50 (DDP) [µg/mL] | IC50 (A431) [µg/mL] | IC50 (MDA-MB-435) [µg/mL] | IC50 (SK-BR3) [µg/mL] | IC50 (SW620) [µg/mL] | IC50 [3] [µM] | IC50 (3T3; Mus musculus, NIH3T3) [µg/mL] | IC50 (3T3/c-erbb2) [µg/mL]
1 | 6,7-Diethoxy-4-(1-oxo-indan-5-ylamino)-quinoline-3-carbonitrile [Example 110] | 0.0923 | 0.0311 | > 100 µM and 50 µM | 0.0244 | 0.0280 | 0.0281 | 0.0181 |  |  |  |  |  |  |  |  |  | 
2 | CCOc1cc2ncc(C#N)c(Nc3ccc4c(C)cc(=O)oc4c3)c2cc1OCC [Example 100, 6,7-Diethoxy-4-(4-methyl-2-oxo-2H-chromen-7-ylamino)-quinoline-3-carbonitrile] |  |  | 3.5 µM |  |  |  |  | > 48.2 | 0.27 (≈ 0.65 µM) | 0.249 (≈ 0.599 µM) | 0.369 (≈ 0.888 µM) | 0.067 (≈ 0.161 µM) | 0.429 (≈ 1.03 µM) | 0.325 (≈ 0.782 µM) | > 72.3 |  | 
3 | COc1cc2ncc(C#N)c(Nc3ccc4cn[nH]c4c3)c2cc1OC [Example 102, 6,7-Dimethoxy-4-(1H-indazol-6-ylamino)-quinoline-3-carbonitrile] |  |  |  |  |  |  |  | > 56.4 | 1.49 (≈ 4.32 µM) | 3.05 (≈ 8.84 µM) | 1.31 (≈ 3.79 µM) | 0.49 (≈ 1.42 µM) | 0.78 (≈ 2.26 µM) | 2.18 (≈ 6.31 µM) | 14.1 |  | 
4 | CCOc1cc2ncc(C#N)c(Nc3ccc4[nH]nnc4c3)c2cc1OCC [Example 103, 4-(1H-Benzotriazol-5-ylamino)-6,7-diethoxy-quinoline-3-carbonitrile] |  |  |  |  |  |  |  | > 53.4 | 2.39 (≈ 6.39 µM) | 2.69 (≈ 7.18 µM) | 1.61 (≈ 4.3 µM) | 0.309 (≈ 0.825 µM) | 0.767 (≈ 2.05 µM) | 2.64 (≈ 7.04 µM) |  |  | 
5 | CCOc1cc2ncc(C#N)c(Nc3ccc4c(c3)C(=O)NC4=O)c2cc1OCC [Example 104, 4-(1,3-Dioxo-2,3-dihydro-1H-isoindol-5-ylamino)-6,7-diethoxy-quinoline-3-carbonitrile] |  |  | 35 µM |  |  |  |  | > 49.7 | 0.044 (≈ 0.109 µM) | 0.107 (≈ 0.266 µM) | 0.049 (≈ 0.122 µM) | 0.021 (≈ 0.0522 µM) | 0.034 (≈ 0.0845 µM) | 0.207 (≈ 0.514 µM) | > 74.6 |  | 
6 | CCOc1cc2ncc(C#N)c(Nc3ccc4c(c3)CCC4)c2cc1OCC [Example 108, 6,7-Diethoxy-4-(indan-5-ylamino)-quinoline-3-carbonitrile] |  |  |  |  |  |  |  | > 2.68 |  |  | 0.342 (≈ 0.916 µM) | 0.352 (≈ 0.943 µM) | 0.294 (≈ 0.787 µM) | < 0.0005 | > 80.3 | 0.525 (≈ 1.41 µM) | 0.0198 (≈ 0.053 µM)
